The record followed here is US20240043427A1 (Gilead Sciences, Inc., priority 2020, published 2024).

Where two headings read alike, the source gives them in different places.

The target of assay [1] is T1, CD73 (Homo sapiens (Human), UniProt P21589). The assay is described as follows: CD73 Biochemical IC50 Assay. The conditions noted are these: CD73 0.3 nM, AMP 15 uM, 25 mM Tris pH 7.4, 5 mM MgCl2. The procedure: CD73 Biochemical IC50 Assay
Compound serial dilutions were pre-spotted into Thermo Nunc assay plate. 50 μL CD73 enzyme buffer (CD73 purchased from R&D system=0.6 nM, 25 mM Tris, pH 7.4, 5 mM MgCl2) was added into the assay plate and incubated for 15 mins. […] The samples were run using Rapid fire.

The target of assay [2] is T1, CD73. Description: MDA-MB-231 Cell Based CD73 Activity Assay. The settings on record: MDA-MB-231-GFP cells, RPMI medium with 10% human plasma, 200 uM AMP. Here is the method: MDA-MB-231 Cell Based CD73 Activity Assay
MDA-MB-231-GFP cells were seeded in 384-well plates (Greiner 781946) at a density of 10000 cells per well in 50 μL of RPMI medium with 10% HP (human plasma). Cells were plated into assay plate with compounds pre-spotted, for an overnight compound treatment. 50 μL of 400 μM AMP (final concentration 200 μM) using a Bio-tek dispenser. Plates were incubated for 100 mins. […] The samples were run using Rapid fire.

The target of assay [3] is T1, CD73. The assay is described as follows: MDA-MB-231 Cell Based CD73 Activity Assay (DMEM). The settings on record: MDA-MB-231-GFP cells, DMEM medium with 10% human plasma, 200 uM AMP.
For assay [4], the target named is T1, CD73. The format is biochemical. The settings on record: 1 mM NaH2PO4 in enzyme buffer, CD73 0.3 nM, AMP 15 uM.

T1 sequence (P21589 27-574): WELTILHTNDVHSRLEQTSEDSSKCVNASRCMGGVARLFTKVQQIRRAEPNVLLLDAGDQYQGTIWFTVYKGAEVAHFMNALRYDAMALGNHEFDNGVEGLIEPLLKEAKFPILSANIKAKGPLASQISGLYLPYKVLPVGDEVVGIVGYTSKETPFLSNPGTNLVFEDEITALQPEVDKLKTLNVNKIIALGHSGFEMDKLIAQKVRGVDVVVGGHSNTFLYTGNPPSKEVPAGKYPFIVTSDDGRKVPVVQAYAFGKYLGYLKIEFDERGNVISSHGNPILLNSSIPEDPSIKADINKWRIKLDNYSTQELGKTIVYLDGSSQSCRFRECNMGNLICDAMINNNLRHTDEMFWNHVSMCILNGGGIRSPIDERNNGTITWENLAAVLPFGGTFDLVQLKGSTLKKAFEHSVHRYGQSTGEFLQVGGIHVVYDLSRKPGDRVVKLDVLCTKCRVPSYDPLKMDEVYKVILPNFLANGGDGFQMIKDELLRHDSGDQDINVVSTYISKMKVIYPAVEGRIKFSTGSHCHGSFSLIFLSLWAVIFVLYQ

In general, IC50 refers to the concentration that gives 50% inhibition. The low end stands for inhibition by little substance, the high end for a need for much substance. In general, EC50 refers to the midpoint of the concentration-response curve. As for `CC1(C)CCN(c2cc(-c3c[nH]c(=O)[nH]c3=O)nn3ccnc23)CC1` [Example 89, 5-[8-(4,4-dimethyl-1-piperidyl)imidazo[1,2-b]pyridazin-6-yl]-1H-pyrimidine-2,4-dione], the IC50 at CD73 [1] stood at 0.211 µM. On CD73 [2], this molecule gave an EC50 of 0.248 µM.
For `O=c1[nH]cc(-c2cc([C@H]3C[C@@H]3c3ccc(F)cc3)c3ncc(F)n3n2)c(=O)[nH]1` (racemic) [Example 76, 5-[3-fluoro-8-[(1S,2S)-2-(4-fluorophenyl)cyclopropyl]imidazo[1,2-b]pyridazin-6-yl]-1H-pyrimidine-2,4-dione and 5-[3-fluoro-8-[(1R,2R)-2-(4-fluorophenyl)cyclopropyl]imidazo[1,2-b]pyridazin-6-yl]-1H-pyrimidine-2,4-dione] the same measures were 0.0265 µM and 0.00248 µM.
For `O=c1[nH]cc(-c2cc(CS(=O)(=O)c3ccccc3)c3nccn3n2)c(=O)[nH]1` [Example 20, 5-[8-(benzenesulfonylmethyl)imidazo[1,2-b]pyridazin-6-yl]-1H-pyrimidine-2,4-dione] the same measures were over 2.5 µM and over 25 µM.
On the same counts, the results for `O=c1[nH]cc(-c2cc([C@H]3C[C@@H]3c3ccc(C4CC4)cc3)c3nccn3n2)c(=O)[nH]1` (racemic) [Example 45, 5-(8-((1S,2S)-2-(4-cyclopropylphenyl)cyclopropyl)imidazo[1,2-b]pyridazin-6-yl)pyrimidine-2,4(1H,3H)-dione and 5-(8-((1R,2R)-2-(4-cyclopropylphenyl)cyclopropyl)imidazo[1,2-b]pyridazin-6-yl)pyrimidine-2,4(1H,3H)-dione] are 0.0326 µM and 0.00659 µM.
Regarding `O=c1[nH]cc(-c2cc(C3CCC(F)(F)CC3)c3nccn3n2)c(=O)[nH]1` [Example 14, 5-(8-(4,4-difluorocyclohexyl)imidazo[1,2-b]pyridazin-6-yl)pyrimidine-2,4(1H,3H)-dione], at CD73 [1], the IC50 is 0.301 µM. Besides, the concentration giving a half-maximal response (EC50) at CD73 [2] was determined as 0.0792 µM.
`O=c1[nH]cc(-c2cc([C@H]3C[C@@H]3C(F)(F)F)c3nccn3n2)c(=O)[nH]1` (mixture of isomers) [Example 107, 5-(8-((1S,2S)-2-(trifluoromethyl)cyclopropyl)imidazo[1,2-b]pyridazin-6-yl)pyrimidine-2,4(1H,3H)-dione and 5-(8-((1R,2R)-2-(trifluoromethyl)cyclopropyl)imidazo[1,2-b]pyridazin-6-yl)pyrimidine-2,4(1H,3H)-dione] registered an EC50 at CD73 [2] of 0.055 µM.
In turn, `O=c1[nH]cc(-c2cc([C@H]3C[C@]3(F)c3ccccc3)c3nccn3n2)c(=O)[nH]1` (mixture of isomers) [Example 108, 5-(8-((1R,2R)-2-fluoro-2-phenylcyclopropyl)imidazo[1,2-b]pyridazin-6-yl)pyrimidine-2,4(1H,3H)-dione and 5-(8-((1S,2S)-2-fluoro-2-phenylcyclopropyl)imidazo[1,2-b]pyridazin-6-yl)pyrimidine-2,4(1H,3H)-dione] came in with an EC50 on CD73 [2] of 0.0238 µM.
Regarding `N#Cc1cc([C@H]2C[C@@H]2c2cc(-c3c[nH]c(=O)[nH]c3=O)nn3ccnc23)ccc1F` (mixture of isomers) [Example 64, 5-((1S,2S)-2-(6-(2,4-dioxo-1,2,3,4-tetrahydropyrimidin-5-yl)imidazo[1,2-b]pyridazin-8-yl)cyclopropyl)-2-fluorobenzonitrile and 5-((1R,2R)-2-(6-(2,4-dioxo-1,2,3,4-tetrahydropyrimidin-5-yl)imidazo[1,2-b]pyridazin-8-yl)cyclopropyl)-2-fluorobenzonitrile], the EC50 at CD73 [3] came out at 0.00767 µM; on CD73 [2], 0.00287 µM.
On CD73 [2], `O=c1[nH]cc(-c2cc([C@H]3C[C@@H]3c3ccc(OC(F)(F)F)cc3)c3nccn3n2)c(=O)[nH]1` (mixture of isomers) [Example 48, 5-(8-((1S,2S)-2-(4-(trifluoromethoxy)phenyl)cyclopropyl)imidazo[1,2-b]pyridazin-6-yl)pyrimidine-2,4(1H,3H)-dione and 5-(8-((1R,2R)-2-(4-(trifluoromethoxy)phenyl)cyclopropyl)imidazo[1,2-b]pyridazin-6-yl)pyrimidine-2,4(1H,3H)-dione] gave an EC50 of 0.0167 µM.
`COc1ccccc1[C@H]1C[C@@H]1c1cc(-c2c[nH]c(=O)[nH]c2=O)nn2ccnc12` (mixture of isomers) [Example 101, 5-(8-((1S,2S)-2-(2-methoxyphenyl)cyclopropyl)imidazo[1,2-b]pyridazin-6-yl)pyrimidine-2,4(1H,3H)-dione and 5-(8-((1R,2R)-2-(2-methoxyphenyl)cyclopropyl)imidazo[1,2-b]pyridazin-6-yl)pyrimidine-2,4(1H,3H)-dione]: the response at CD73 [2] was half-maximal at 0.00325 µM (EC50).
On the same count and under the same terms, in the case of `O=c1[nH]cc(-c2cc([C@H]3C[C@@H]3c3ccc(C(F)(F)F)c(F)c3)c3nccn3n2)c(=O)[nH]1` (mixture of isomers) [Example 100, 5-(8-((1S,2S)-2-(3-fluoro-4-(trifluoromethyl)phenyl)cyclopropyl)imidazo[1,2-b]pyridazin-6-yl)pyrimidine-2,4(1H,3H)-dione and 5-(8-((1R,2R)-2-(3-fluoro-4-(trifluoromethyl)phenyl)cyclopropyl)imidazo[1,2-b]pyridazin-6-yl)pyrimidine-2,4(1H,3H)-dione] it was 0.0275 µM.
With `O=c1[nH]cc(-c2cc(N3C[C@@H](F)[C@@H](F)C3)c3nccn3n2)c(=O)[nH]1` [Example 77, 5-[8-[(3S,4R)-3,4-difluoropyrrolidin-1-yl]imidazo[1,2-b]pyridazin-6-yl]-1H-pyrimidine-2,4-dione and 5-[8-[(3R,4S)-3,4-difluoropyrrolidin-1-yl]imidazo[1,2-b]pyridazin-6-yl]-1H-pyrimidine-2,4-dione], the EC50 at CD73 [3] turned out to be 0.0284 µM; on CD73 [2] it was 0.0134 µM.
As for `O=c1[nH]cc(-c2cc([C@H]3C[C@@H]3C3CC(F)(F)C3)c3nccn3n2)c(=O)[nH]1` (mixture of isomers) [Example 106, 5-(8-((1S,2R)-2-(3,3-difluorocyclobutyl)cyclopropyl)imidazo[1,2-b]pyridazin-6-yl)pyrimidine-2,4(1H,3H)-dione and 5-(8-((1R,2S)-2-(3,3-difluorocyclobutyl)cyclopropyl)imidazo[1,2-b]pyridazin-6-yl)pyrimidine-2,4(1H,3H)-dione], a half-maximal response at CD73 [2] (EC50) required 0.0935 µM.
Regarding `C#CC1(C)CCN(c2cc(-c3c[nH]c(=O)[nH]c3=O)nn3ccnc23)C1` (stereo not drawn) [Example 683, 5-(8-(3-ethynyl-3-methylpyrrolidin-1-yl)imidazo[1,2-b]pyridazin-6-yl)pyrimidine-2,4(1H,3H)-dione], a half-maximal response at CD73 [3] (EC50) required 0.0109 µM. The midpoint of inhibition at CD73 [4], the IC50, lay at 0.00131 µM.
On CD73 [3], `C#CC1CCN(c2cc(-c3c[nH]c(=O)[nH]c3=O)nn3ccnc23)C1` (stereo not drawn) [Example 684, 5-(8-(3-ethynylpyrrolidin-1-yl)imidazo[1,2-b]pyridazin-6-yl)pyrimidine-2,4(1H,3H)-dione] displayed an EC50 of 0.00584 µM. Besides, inhibition on CD73 [4] was half-maximal at 0.00129 µM (IC50).
For `O=c1[nH]cc(-c2cc([C@H]3C[C@@H]3c3ccc(Cl)nc3)c3nccn3n2)c(=O)[nH]1` (racemic) [Example 568, 5-(8-((1S,2S)-2-(6-chloropyridin-3-yl)cyclopropyl)imidazo[1,2-b]pyridazin-6-yl)pyrimidine-2,4(1H,3H)-dione] the same measures were 0.0081 µM and 0.00284 µM.
For `O=c1[nH]cc(-c2cc([C@H]3C[C@@H]3c3cc(-c4ccccc4C(F)(F)F)ccn3)c3nccn3n2)c(=O)[nH]1` (racemic) [Example 622, 5-(8-((1S,2S)-2-(4-(2-(trifluoromethyl)phenyl)pyridin-2-yl)cyclopropyl)imidazo[1,2-b]pyridazin-6-yl)pyrimidine-2,4(1H,3H)-dione] the same measures were 0.0273 µM and 0.00287 µM.
Regarding `COC1CN(c2cc(-c3c[nH]c(=O)[nH]c3=O)nn3c(F)cnc23)CC1(F)F` (stereo not drawn) [Example 474, 5-(8-(3,3-difluoro-4-methoxypyrrolidin-1-yl)-3-fluoroimidazo[1,2-b]pyridazin-6-yl)pyrimidine-2,4(1H,3H)-dione], at CD73 [3], the EC50 was determined as 0.0267 µM. On CD73 [4], half-maximal inhibition (IC50) was put at 0.00747 µM.
For `O=c1[nH]cc(-c2cc(N3CC(F)C4(CC4)C3)n3nccc3n2)c(=O)[nH]1` (stereo not drawn) [Example 147, 5-(7-(7-fluoro-5-azaspiro[2.4]heptan-5-yl)pyrazolo[1,5-a]pyrimidin-5-yl)pyrimidine-2,4(1H,3H)-dione] the same measures were 0.0961 µM and 0.039 µM.
`O=c1[nH]cc(-c2cc([C@H]3C[C@@H]3c3ccc(F)cc3F)n3nccc3n2)c(=O)[nH]1` [Example 469, 5-(7-((1S,2S)-2-(2,4-difluorophenyl)cyclopropyl)pyrazolo[1,5-a]pyrimidin-5-yl)pyrimidine-2,4(1H,3H)-dione] returned an EC50 at CD73 [3] of 0.015 µM. The molecule also registered an IC50 against CD73 [4] of 0.00173 µM.
For `CC(C)CNc1cc(-c2c[nH]c(=O)[nH]c2=O)nn2ccnc12` [Example 667, 5-(8-(isobutylamino)imidazo[1,2-b]pyridazin-6-yl)pyrimidine-2,4(1H,3H)-dione] the same measures were 0.414 µM and 0.1 µM.
